This is an account of results in the supplement of paper PMC10307832.

What all share (assay): relative viability (nuclei count vs DMSO), 5 days (fraction); higher = more cells survive
Compound in test [1]: Cc1ccc(-n2nc(C(C)(C)C)cc2NC(=O)Nc2ccc(OCCN3CCOCC3)c3ccccc23)cc1 [Doramapimod] + COc1cc2c(Oc3ccc(NC(=O)C4(C(=O)Nc5ccc(F)cc5)CC4)cc3F)ccnc2cc1OCCCN1CCOCC1 [Foretinib] (partner 0.25 µM)
In a few lines: (§1)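 One day after seeding in 1536-well plates, lung cancer cell lines were dosed by pin tool. Dosing was either single-drug or a fixed anchor-drug dose plus five library-drug doses (not always all listed) in √10 steps. After 5 days, nuclei were stained in one fix-and-stain step and counted on 4× images, and relative viability is the nuclei count of treated wells over that of vehicle wells, given as the median of duplicate plates.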

Compound in test [2]: C1=CC=C2C(=C1)C=CC(=C2SSC3=C(C=CC4=CC=CC=C43)O)O [IPA-3] + CC(=O)c1c(C)c2cnc(Nc3ccc(N4CCNCC4)cn3)nc2n(C2CCCC2)c1=O [Palbociclib] (partner 0.5 µM)
Summed up:
as §1

Compound in test [3]: Cc1ccc(-n2nc(C(C)(C)C)cc2NC(=O)Nc2ccc(OCCN3CCOCC3)c3ccccc23)cc1 [Doramapimod] + CC(C)C[C@H](NC(=O)[C@H](Cc1ccccc1)NC(=O)c1cnccn1)B(O)O [Bortezomib] (partner 0.002 µM)
Summed up:
as §1

Compound in test [4]: Cc1ccc(-n2nc(C(C)(C)C)cc2NC(=O)Nc2ccc(OCCN3CCOCC3)c3ccccc23)cc1 [Doramapimod] + CS(=O)(=O)CCNCc1ccc(-c2ccc3ncnc(Nc4ccc(OCc5cccc(F)c5)c(Cl)c4)c3c2)o1 [Lapatinib] (partner 2 µM)
In a few lines:
as §1

As for PC-14, the relative viability in test [1] (first compound 0.02 µM) was determined as 0.939; in test [1] (first compound 0.06325 µM), 1.03; in test [1] (first compound 0.2 µM) it was 0.997; in test [1] (first compound 0.6325 µM) it was 1.13; in test [1] (first compound 2 µM), 0.91; in test [2] (first compound 0.2 µM), 0.648. Moreover, the relative viability in test [2] (first compound 0.6325 µM) came out at 0.324; in test [2] (first compound 2 µM) it was 0.512; in test [2] (first compound 6.325 µM), 0.446; in test [2] (first compound 20 µM), 0.352; in test [3] (first compound 0.02 µM), 0.968; in test [3] (first compound 0.06325 µM), 0.845. Further, the relative viability was determined as 0.778 in test [3] (first compound 0.2 µM); 1.01 in test [3] (first compound 0.6325 µM); 0.81 in test [3] (first compound 2 µM); 0.292 in test [4] (first compound 0.02 µM); 0.322 in test [4] (first compound 0.06325 µM); 0.346 in test [4] (first compound 0.2 µM). Also, the relative viability came out at 0.425 in test [4] (first compound 0.6325 µM) and 0.319 in test [4] (first compound 2 µM).

With RERF-LC-KJ, the relative viability in test [1] (first compound 0.02 µM) amounted to 0.87; in test [1] (first compound 0.06325 µM), 0.955; in test [1] (first compound 0.2 µM), 0.884; in test [1] (first compound 0.6325 µM) it was 0.9; in test [1] (first compound 2 µM), 0.869; in test [2] (first compound 0.2 µM), 1.19. The relative viability in test [2] (first compound 0.6325 µM) was 1.04; in test [2] (first compound 2 µM), 1.08; in test [2] (first compound 6.325 µM), 1.16; in test [2] (first compound 20 µM), 0.826; in test [3] (first compound 0.02 µM), 1.19; in test [3] (first compound 0.06325 µM) it was 1.05. Also, the relative viability in test [3] (first compound 0.2 µM) came out at 1.29; in test [3] (first compound 0.6325 µM), 1.07; in test [3] (first compound 2 µM) it was 1.04; in test [4] (first compound 0.02 µM) it was 0.983; in test [4] (first compound 0.06325 µM) it was 0.946; in test [4] (first compound 0.2 µM) it was 0.879. Further, the results for the relative viability in test [4] (first compound 0.6325 µM) and in test [4] (first compound 2 µM) were 0.908 and 0.814, respectively.

On to SK-LU-1, for which the relative viability in test [1] (first compound 0.02 µM) came to 0.805; in test [1] (first compound 0.06325 µM), 0.82; in test [1] (first compound 0.2 µM), 0.847; in test [1] (first compound 0.6325 µM) it was 0.873; in test [1] (first compound 2 µM) it was 0.759; in test [2] (first compound 0.2 µM), 0.446. Moreover, the relative viability in test [2] (first compound 0.6325 µM) came out at 0.341; in test [2] (first compound 2 µM), 0.374; in test [2] (first compound 6.325 µM), 0.401; in test [2] (first compound 20 µM), 0.411; in test [3] (first compound 0.02 µM) it was 1.41; in test [3] (first compound 0.06325 µM), 1.37. For the same cell line, the relative viability in test [3] (first compound 0.2 µM) came out at 1.51; in test [3] (first compound 2 µM) it was 1.15; in test [4] (first compound 0.02 µM) it was 0.975; in test [4] (first compound 0.06325 µM), 0.947; in test [4] (first compound 0.2 µM) it was 0.971; in test [4] (first compound 0.6325 µM), 0.806. The relative viability in test [4] (first compound 2 µM) was 0.762.

In the case of SW 1573, the relative viability in test [1] (first compound 0.02 µM) was 0.862; in test [1] (first compound 0.06325 µM), 0.769; in test [1] (first compound 0.2 µM), 0.749; in test [1] (first compound 0.6325 µM), 0.836; in test [1] (first compound 2 µM) it was 0.663; in test [2] (first compound 0.2 µM), 0.492. Moreover, the relative viability in test [2] (first compound 0.6325 µM) came to 0.332; in test [2] (first compound 2 µM) it was 0.412; in test [2] (first compound 6.325 µM), 0.363; in test [2] (first compound 20 µM), 0.0729; in test [3] (first compound 0.02 µM), 0.944; in test [3] (first compound 0.06325 µM), 0.927. The relative viability in test [3] (first compound 0.2 µM) is 0.813; in test [3] (first compound 0.6325 µM), 0.764; in test [3] (first compound 2 µM), 0.875; in test [4] (first compound 0.02 µM), 0.982; in test [4] (first compound 0.06325 µM), 0.939; in test [4] (first compound 0.2 µM), 0.897. The values for the relative viability in test [4] (first compound 0.6325 µM) and in test [4] (first compound 2 µM) were 1.04 and 1.2, respectively.
